This assay concerns the target T1, TCPTP (Homo sapiens, UniProt P17706).
T1 sequence (P17706 1-415): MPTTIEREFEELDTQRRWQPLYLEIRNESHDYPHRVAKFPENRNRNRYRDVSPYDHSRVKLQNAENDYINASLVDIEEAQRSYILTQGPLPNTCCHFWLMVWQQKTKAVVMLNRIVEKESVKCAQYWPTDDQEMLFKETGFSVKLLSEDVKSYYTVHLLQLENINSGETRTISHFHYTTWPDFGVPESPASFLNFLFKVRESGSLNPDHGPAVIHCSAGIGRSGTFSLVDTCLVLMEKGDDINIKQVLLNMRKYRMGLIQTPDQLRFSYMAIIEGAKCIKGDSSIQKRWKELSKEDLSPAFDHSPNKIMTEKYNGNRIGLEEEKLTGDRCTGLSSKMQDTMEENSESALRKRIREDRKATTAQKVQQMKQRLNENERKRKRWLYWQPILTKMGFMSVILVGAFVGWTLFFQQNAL
The experiment in a line: T‐cell protein tyrosine phosphatase (TCPTP) activity assay (p‐NPP). Format: biochemical. The settings on record: ± S.D; assessed up to 100 μM; read-out: TCPTP IC50. How it is done:
The effectiveness and safety of protein tyrosine phosphatase (PTP) inhibitors depend on their specificity. PTP1B and TCPTP serve different functions: PTP1B is involved in metabolism and cancer, while TCPTP regulates immune function. Inhibiting TCPTP could impact the immune response, whereas inhibiting PTP1B may benefit metabolic diseases without these side effects.^[ [20] ^, [34] ^, [35] ^] […] These compounds were assessed up to 100 μM (Table 1).
TCPTP enzyme reported by Mendoza et al. was used for this assay. […] Aliquots of 0–10 µL (triplicate) of the newly synthesized compounds, positive control, and solvent were taken. These were incubated with 85 µL of enzyme solution (Tris, 50 mM, pH 6.8, TCPTP) and 5 µL of substrate (p‐NPP, 10 mM) for 15 min at 37 °C.

These results are taken from article PMC12640663 (Chemmedchem, 2025).

In the case of `CC1(C(=O)O)CCC2(C)CCC3(C)C(=CC(=O)C4C5(C)Cc6c([nH]c7ccc(C(F)(F)F)cc67)C(C)(C)C5CCC43C)C2C1` (stereo not shown) [Compound 3c], the half-maximal inhibitory concentration (IC50) was above 100 µM.

One may read the IC50 as the concentration that gives 50% inhibition.
